Columns and labels:
[1] = Oral toxicity to mice (Lorke's method); conditions: both sexes, mouse, in vivo, Kunming mice, observed 14 days
Experimental: With reference to Lorke’s method, kunming mice were used as targets to estimate the oral toxicity of each compound to mice. We select compounds 11, 17, 25, 28, and 35 at concentrations of 10, 100, and 1000 mg/kg to test their oral toxicity in the first phase, and 1600, 2900, and 5000 mg/kg at the second phase.
Experiments were performed on Kunming mice (male and female half, bw range, 25–30 g). Mice were housed in a climate and light controlled room with a 12 h light/dark cycle. Twelve hours before experiments, food was withheld, but animals had free access to drinking water. The compounds were suspended in vehicle (Tween-80, 0.2% in saline). The concentrations were adjusted to orally administrate 0.2 ml/10 g of bw. Mice were treated in two phases. In the first, intragastric doses of 10, 100 and 1000 mg/kg of bw of compounds were administered. On the second, the doses were adjusted to 1600, 2900, and 5000 mg/kg of bw of compounds. In both phases, mice were observed daily in a period of 14 days for mortality, toxic effects and/or changes in behavioural pattern. At the end of the experiments, the mice were sacrificed in a CO2 chamber.

α-Glucosidase = target: T1, α-Glucosidase (Saccharomyces cerevisiae, UniProt P53341); assay: biochemical; format: biochemical; conditions: for α-glucosidase inhibitory activity (in words): in vitro; for IC50: mean ± SD (n = 3), read-out: α-Glucosidase inhibitory activity IC50 Value
T1 construct: purchased Sigma Aldrich G0660-750UN
Summary of the method: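 Yeast α-glucosidase and PNPG substrate in 100 mM phosphate buffer, pH 6.8, with DMSO-dissolved compounds were preincubated 10 min at 37 °C, then reacted 20 min at 37 °C after enzyme addition. Na2CO3 stopped the reaction; p-nitrophenol was read at 405 nm. Blank-corrected % inhibition and IC50 came from triplicates.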

normal mice = assay: Acute hypoglycemic assay in normal mice; format: in vivo
Experimental: STZ-induced diabetic mice and normal mice were placed in single cages with wire-net floors and deprived of food for 12 h before experimentation but allowed free access to tap water throughout. The compounds (at the doses of 10, 30, and 100 mg/kg of bw) were suspended in 0.05% Tween-80 in saline solution. Glibenclamide (10 mg/kg of bw) was suspended in the same vehicle. The target compounds were freshly prepared immediately before experimentation and administered by the intragastrical route at the doses of 10 ml/kg of bw. Control mice received only the vehicle (0.05% Tween-80 in saline solution) by the same route. Blood glucose levels were measured at 0, 1.5, 3, 5, 7, and 9 h after drugs administration.

[2] = DPPH free radical scavenging; conditions: mean ± SD (n = 3)
Summary of the method: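 Sample solutions at various concentrations mixed 1:1 with DPPH (0.04 mg/mL) and reacted 30 min at room temperature; absorbance read at 517 nm against ethanol blank, corrected for sample absorbance. Scavenging % calculated versus DPPH alone, triplicate measurements, IC50 derived.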

T1 sequence (P53341 whole entry): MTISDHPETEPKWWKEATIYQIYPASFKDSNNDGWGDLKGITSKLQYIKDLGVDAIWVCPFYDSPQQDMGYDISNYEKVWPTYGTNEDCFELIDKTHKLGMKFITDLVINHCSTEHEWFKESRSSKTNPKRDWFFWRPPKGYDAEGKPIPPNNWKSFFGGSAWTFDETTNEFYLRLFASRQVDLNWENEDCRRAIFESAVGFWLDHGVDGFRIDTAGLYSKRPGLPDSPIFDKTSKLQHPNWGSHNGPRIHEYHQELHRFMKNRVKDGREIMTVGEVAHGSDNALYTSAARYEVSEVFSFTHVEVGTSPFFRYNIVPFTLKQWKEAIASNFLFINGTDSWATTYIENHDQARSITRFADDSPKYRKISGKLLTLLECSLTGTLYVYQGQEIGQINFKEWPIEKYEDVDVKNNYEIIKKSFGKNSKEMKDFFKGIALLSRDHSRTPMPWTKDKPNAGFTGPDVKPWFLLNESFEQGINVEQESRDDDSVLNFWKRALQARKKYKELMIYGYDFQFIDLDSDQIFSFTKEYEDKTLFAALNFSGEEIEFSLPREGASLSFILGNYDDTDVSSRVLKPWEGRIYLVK

SMILES	LD50 at 14 days [1] [mg/kg]	α-glucosidase inhibitory activity (in words) (α-Glucosidase)	IC50 (α-Glucosidase) [µM]	Blood glucose concentration (normal mice; 10 mg/kg of bw per os, 0h) [mM]	% Variation of glycemia (normal mice; 10 mg/kg of bw per os, 1.5h)	Blood glucose concentration (normal mice; 10 mg/kg of bw per os, 1.5h) [mM]	% Variation of glycemia (normal mice; 10 mg/kg of bw per os, 3h)	Blood glucose concentration (normal mice; 10 mg/kg of bw per os, 3h) [mM]	% Variation of glycemia (normal mice; 10 mg/kg of bw per os, 5h)	Blood glucose concentration (normal mice; 10 mg/kg of bw per os, 5h) [mM]	% Variation of glycemia (normal mice; 10 mg/kg of bw per os, 7h)	Blood glucose concentration (normal mice; 10 mg/kg of bw per os, 7h) [mM]	% Variation of glycemia (normal mice; 10 mg/kg of bw per os, 9h)	Blood glucose concentration (normal mice; 10 mg/kg of bw per os, 9h) [mM]	Blood glucose concentration (normal mice; 30 mg/kg of bw per os, 0h) [mM]	% Variation of glycemia (normal mice; 30 mg/kg of bw per os, 1.5h)	Blood glucose concentration (normal mice; 30 mg/kg of bw per os, 1.5h) [mM]	% Variation of glycemia (normal mice; 30 mg/kg of bw per os, 3h)	Blood glucose concentration (normal mice; 30 mg/kg of bw per os, 3h) [mM]	IC50 [2] [µM]	further results
Cc1ccccc1-c1cc2ccc(O)cc2oc1=O [Compound 11, 7-Hydroxy-3-(2-methylphenyl)-coumarin]	> 5000	moderate to excellent inhibitory activity	16.4 ± 1.23	10.0 ± 0.7	(−15.27) %	9.1 ± 0.2	(−28.35) %	7.7 ± 0.6	(−38.01) %	6.6 ± 0.5	(−47.98) %	5.6 ± 0.4	(−48.91) %	5.5 ± 1.2	10.2 ± 1.2	(−13.62) %	8.7 ± 1.2	(−30.90) %	6.9 ± 1.1	564.2 ± 5.2	% Variation of glycemia (normal mice; 30 mg/kg of bw per os, 5h): (−40.86) %; Blood glucose concentration (normal mice; 30 mg/kg of bw per os, 5h): 5.9 ± 1.1 mM; % Variation of glycemia (normal mice; 30 mg/kg of bw per os, 7h): (−47.84) %; Blood glucose concentration (normal mice; 30 mg/kg of bw per os, 7h): 5.2 ± 0.8 mM; % Variation of glycemia (normal mice; 30 mg/kg of bw per os, 9h): (−49.17) %; Blood glucose concentration (normal mice; 30 mg/kg of bw per os, 9h): 5.1 ± 0.6 mM; Blood glucose concentration (normal mice; 100 mg/kg of bw per os, 0h): 10.4 ± 0.7 mM; % Variation of glycemia (normal mice; 100 mg/kg of bw per os, 1.5h): (−31.37) %; Blood glucose concentration (normal mice; 100 mg/kg of bw per os, 1.5h): 7.0 ± 1.1 mM; % Variation of glycemia (normal mice; 100 mg/kg of bw per os, 3h): (−42.16) %; Blood glucose concentration (normal mice; 100 mg/kg of bw per os, 3h): 5.9 ± 0.6 mM; % Variation of glycemia (normal mice; 100 mg/kg of bw per os, 5h): (−52.94) %; Blood glucose concentration (normal mice; 100 mg/kg of bw per os, 5h): 4.8 ± 1.3 mM; % Variation of glycemia (normal mice; 100 mg/kg of bw per os, 7h): (−54.25) %; Blood glucose concentration (normal mice; 100 mg/kg of bw per os, 7h): 4.7 ± 0.4 mM; % Variation of glycemia (normal mice; 100 mg/kg of bw per os, 9h): (−58.17) %; Blood glucose concentration (normal mice; 100 mg/kg of bw per os, 9h): 4.3 ± 0.3 mM
O=c1oc2ccc(O)cc2cc1-c1ccc(O)cc1 [Compound 17, 6-Hydroxy-3-(4-hydroxyphenyl)-coumarin]	> 5000	moderate to excellent inhibitory activity	11.5 ± 1.3	10.6 ± 0.4	(−23.96) %	7.9 ± 0.7	(−34.19) %	6.9 ± 0.8	(−45.37) %	5.7 ± 0.7	(−48.56) %	5.4 ± 0.5	(−51.12) %	5.1 ± 0.4	10.8 ± 0.3	(−18.39) %	8.4 ± 1.0	(−33.55) %	6.9 ± 0.9	163 ± 7.13	% Variation of glycemia (normal mice; 30 mg/kg of bw per os, 5h): (−48.71) %; Blood glucose concentration (normal mice; 30 mg/kg of bw per os, 5h): 5.3 ± 0.7 mM; % Variation of glycemia (normal mice; 30 mg/kg of bw per os, 7h): (−48.71) %; Blood glucose concentration (normal mice; 30 mg/kg of bw per os, 7h): 5.3 ± 1.1 mM; % Variation of glycemia (normal mice; 30 mg/kg of bw per os, 9h): (−56.45) %; Blood glucose concentration (normal mice; 30 mg/kg of bw per os, 9h): 4.5 ± 0.6 mM; Blood glucose concentration (normal mice; 100 mg/kg of bw per os, 0h): 10.4 ± 0.2 mM; % Variation of glycemia (normal mice; 100 mg/kg of bw per os, 1.5h): (−25.90) %; Blood glucose concentration (normal mice; 100 mg/kg of bw per os, 1.5h): 7.5 ± 1.2 mM; % Variation of glycemia (normal mice; 100 mg/kg of bw per os, 3h): (−37.71) %; Blood glucose concentration (normal mice; 100 mg/kg of bw per os, 3h): 6.3 ± 0.9 mM; % Variation of glycemia (normal mice; 100 mg/kg of bw per os, 5h): (−49.18) %; Blood glucose concentration (normal mice; 100 mg/kg of bw per os, 5h): 5.2 ± 0.5 mM; % Variation of glycemia (normal mice; 100 mg/kg of bw per os, 7h): (−53.44) %; Blood glucose concentration (normal mice; 100 mg/kg of bw per os, 7h): 4.7 ± 0.4 mM; % Variation of glycemia (normal mice; 100 mg/kg of bw per os, 9h): (−58.03) %; Blood glucose concentration (normal mice; 100 mg/kg of bw per os, 9h): 4.3 ± 0.4 mM
Cc1ccc(-c2cc3c(O)cc(O)cc3oc2=O)cc1 [Compound 25, 5,7-Dihydroxy-3-(4-methylphenyl)-coumarin]	> 5000	moderate to excellent inhibitory activity	11.5 ± 0.37																	603 ± 7.42	
COc1ccc(-c2cc3c(O)cc(O)cc3oc2=O)cc1 [Compound 35, 5,7-Dihydroxy-3-(4-methoxyphenyl)-coumarin]	> 5000	moderate to excellent inhibitory activity	10.8 ± 0.63	10.8 ± 0.6	(−14.55) %	9.2 ± 0.6	(−24.15) %	8.2 ± 0.5	(−25.70) %	8.0 ± 0.4	(−31.27) %	7.4 ± 0.5	(−34.06) %	7.1 ± 0.3	10.5 ± 0.9	(−17.72) %	8.7 ± 1.0	(−31.65) %	7.2 ± 0.8	155 ± 10.5	% Variation of glycemia (normal mice; 30 mg/kg of bw per os, 5h): (−39.24) %; Blood glucose concentration (normal mice; 30 mg/kg of bw per os, 5h): 6.4 ± 1.0 mM; % Variation of glycemia (normal mice; 30 mg/kg of bw per os, 7h): (−44.94) %; Blood glucose concentration (normal mice; 30 mg/kg of bw per os, 7h): 5.8 ± 0.7 mM; % Variation of glycemia (normal mice; 30 mg/kg of bw per os, 9h): (−44.30) %; Blood glucose concentration (normal mice; 30 mg/kg of bw per os, 9h): 5.9 ± 0.6 mM; Blood glucose concentration (normal mice; 100 mg/kg of bw per os, 0h): 10.6 ± 0.4 mM; % Variation of glycemia (normal mice; 100 mg/kg of bw per os, 1.5h): (−18.18) %; Blood glucose concentration (normal mice; 100 mg/kg of bw per os, 1.5h): 8.7 ± 0.5 mM; % Variation of glycemia (normal mice; 100 mg/kg of bw per os, 3h): (−40.44) %; Blood glucose concentration (normal mice; 100 mg/kg of bw per os, 3h): 6.3 ± 1.0 mM; % Variation of glycemia (normal mice; 100 mg/kg of bw per os, 5h): (−49.22) %; Blood glucose concentration (normal mice; 100 mg/kg of bw per os, 5h): 5.4 ± 0.6 mM; % Variation of glycemia (normal mice; 100 mg/kg of bw per os, 7h): (−55.17) %; Blood glucose concentration (normal mice; 100 mg/kg of bw per os, 7h): 4.8 ± 0.6 mM; % Variation of glycemia (normal mice; 100 mg/kg of bw per os, 9h): (−57.05) %; Blood glucose concentration (normal mice; 100 mg/kg of bw per os, 9h): 4.6 ± 0.7 mM

— PMC6211316, “Synthesis and biological evaluation of 3-arylcoumarin derivatives as potential anti-diabetic agents” (Journal of Enzyme Inhibition and Medicinal Chemistry, 2018)
